Reference: patent publication US10456405B2, “Nitric oxide-releasing prodrug molecule of substituted quinazolines” (ZHEJIANG HUAHAI PHARMACEUTICAL CO., LTD, priority 2015, dated 2019)
Like-named read-outs stand apart in the source and are kept apart here.

Assays:
[1] = 2 h
Description: Experimental method: The tested compounds (2 μM) were added into mouse or human plasma, and incubated at 37° C. Samples were taken at 0, 10, 30, 60 and 120 min respectively. The reaction was stopped by adding a stop agent. The mixture was sufficient shaken, and centrifuged at 4000 rpm for 10 min at 4° C. The supernatant was taken. The concentrations of the tested compounds and their metabolite (H130) in the supernatant were measured by LC-MS/MS.

[2] = Release of HNO (headspace gas chromatography of nitrous oxide); settings: PBS pH 7.4, 37° C., argon, 90 min
db/db mice = experiment: Serum NO and heart eNOS in db/db mice after oral gavage; format: in vivo; settings: blank = 100, oral gavage 150 mg/kg (isosorbide mononitrate 5 mg/kg), 1 h after administration (H101: 2 h)
Excerpt: Experimental method: 25 eight-week-old db/db mice (strain: BKS.Cg−+Leprdb/+leprdb/JclSlac; grade: SPF; gender: male; source: Shanghai SLAC Laboratory Animal Co., Ltd.) were selected. 3 of them were selected as the blank administration control. 2 mice were used as the positive drug control (isosorbide mononitrate). The remaining 20 mice were randomly divided into 5 groups, 4 mice per group, which are H101 administration group, H111 administration group, H116 administration group, H119 administration group, and H130 administration group. The tested compounds of the positive drug control group and each administration group were dissolved in DMSO. Then PEG400 was added. The mixture was shaken and mixed thoroughly. At last, 10% of HP-β-CD was added. The mixture was shaken and mixed thoroughly. The ratio of each solvent was DMSO: PEG400:10% of HP-β-CD=5:67.5:27.5. The administration group was administered by oral gavage at the dose of 150 mg/kg. The positive drug control group was administered at the dose of 5 mg/kg. The mice in the H101 administration group were sacrificed at 2 h after the administration. The mice in the remaining administration groups were sacrificed at 1 h after the administration. The blood was collected respectively into 1.5 mL centrifuge tube, standing at room temperature for more than 30 min, and then centrifuged (3000 rpm, 10 min). The supernatant serum was aspirated, and stored at −80° C. for testing. After the blood was collected, the heart was cut with the thoracic aorta. Three parts of the heart were weighed and placed into cryovials, rapidly frozen in liquid nitrogen, and cryopreserved at −80° C. for testing. The aorta and aortic arch were weighed, rapidly frozen in liquid nitrogen, and cryopreserved at −80° C. for testing. The content of NO in the serum of the […] mice was determined by a total NO test kit (Beyotime). The content of NOS in the heart of the mice was determined with an NOS test kit (Beyotime). The content of eNOS was calculated by the difference between the measured values before and after adding the eNOS inhibitor L-NAME (Beyotime).

[3] = rat, in vivo
Description: Experimental method: Intravenous injection solutions (the administration concentrations of the tested compounds were 1 mg/kg) and oral gastric perfusates (the administration concentrations of the test compounds were 5 mg/kg) of the test compounds were prepared, and intravenously and orally administered to three SD rats, respectively. The concentrations of the whole blood for H130 at 0.083 h, 0.25 h, 0.5 h, 1 h, 2 h, 4 h, 8 h, and 24 h after administration were determined by LC-MS/MS, respectively. The pharmacokinetic parameters were compared by a drug-time curve. Sample pretreatment: 150 μL of the whole blood to be tested was aspirated accurately. 600 μL of internal standard solution (diluted to 0.5 μg/mL with methanol) was added, sufficiently mixed by a vortex mixer, and centrifuged at 13000 r/min for 20 min at 4° C. 3 μL of the supernatant was taken into a sample vial.
Chromatographic conditions: C18 reversed-phase chromatographic column; gradient elution with mobile phase A: water/acetonitrile (v:v=95:5) with 0.025% of formic acid and 1 mM of ammonium acetate added thereto, and mobile phase B: acetonitrile/water (v:v=95:5) with 0.025% of formic acid and 1 mM of ammonium acetate added thereto.

ApoA-I mRNA = experiment: Regulation of ApoA-I mRNA in HepG2 cells (real-time PCR); format: cell-based; design: key: Active: When 100 μM of the tested compound allowed ApoA-I mRNA in HepG2 cells to increase more than 15%, then the test compound was known as an ApoA active compound; settings: 100 μM, 48 h, relative to DMSO control
Description: Experiment 5. Regulation of the Tested Compounds on ApoA-I mRNA HepG2 cells were cultured for 24 h in a 24-well plate with 400 μl of MEM medium containing 0.5% (v/v) of fetal bovine serum. Then each of the tested compounds (100 μM) and the positive control RVX-208 (100 μM) were added. The cells were cultured for another 48 h. The medium was aspirated out. After washing with 200 μl of PBS, 85 μl of cell lysis solution was added into the cells in each well. The cells were incubated at room temperature for 5 to 10 min to be completely dissolved and detached. The mRNA was extracted from the cells with a kit. The extracted mRNA were used for a real-time fluorescence quantitative PCR detection with RNA Fluorescence (RiboGreen) Quantitation Assay Kit and ApoA-I mRNA Primer-Probe Mixture from the company of Applied Biosystems.
After obtaining the Ct values, the induction fold of each test compound relative to DMSO control was calculated. The induction fold was used to reflect the ability of regulating ApoA-I mRNA for the tested compounds. When 100 μM of the tested compound allowed ApoA-I mRNA in HepG2 cells to increase more than 15%, then the test compound was known as an ApoA active compound.

apoE−/− mice = experiment: apoE−/− mouse atherosclerosis model, high-fat diet 10 weeks; format: in vivo
Excerpt: Experimental method: 36 eight-week-old male apoE-/- mice were selected and randomly divided into a blank administration group, an […] administration group, an […] administration group, an […] administration group, an […] administration group, and an […] administration group, 6 mice per group. The mice in each group were fed with high-fat diet for 10 weeks. At the beginning of the high-fat feeding, the mice in each group were administrated. Each tested compound was intragastric administered at the dose of 150 mg/kg twice a day. The blank administration group was given corresponding dose of saline. […] After the blood was taken, the serum, heart, and aorta were isolated. The levels of total cholesterol (TC), high density lipoprotein cholesterol (HDL-C), and low density lipoprotein cholesterol (LDL-C) in the serum of the mice in each group were measured by automatic biochemical analyzer. The ApoA1 expression level was detected with an ApoA1 kit. The content of NO in the serum of the mice was determined with a total NO test kit (Beyotime). The NOS activities of the heart, aorta, and serum were determined with an NOS test kit (Beyotime). The content of eNOS was calculated by the difference between the measured values determined before and after adding eNOS inhibitor L-NAME (Beyotime).

C57BL/6 mice = experiment: Serum NO level in C57 mice after oral gavage; format: in vivo; settings: oral gavage 150 mg/kg (positive drug 5 mg/kg), FIG. 1
Excerpt: Experimental method: 60 eight-week-old C57BL/6 mice (level: SPF; gender: male; source: Shanghai SLAC Laboratory Animal Co., Ltd.) were selected. […] were selected as the blank control. 12 mice were used as the positive drug control (isosorbide mononitrate). 12 mice were used as […] administration group. The other 32 mice were randomly divided into 4 groups, 8 mice per group, which are […] administration group, […] administration group, […] administration group, and […] administration group, respectively. The tested compounds of the positive drug control group and each administration group were dissolved in DMSO and then PEG400 was added thereto. The mixture was shaken and mixed thoroughly. At last, 10% of HP-β-CD was added. The mixture was shaken and mixed thoroughly. The ratio of each solvent was DMSO: PEG400:10% of HP-β-CD=5:67.5:27.5. The administration groups were administered by oral gavage at the dose of 150 mg/kg. The positive drug control group was administered at the dose of 5 mg/kg. The mice in each group were sacrificed by inhaling excess CO2 at 10 min, 30 min, 60 min, 120 min, 180 min, and 240 min after administration. The blood was collected into a 1.5 mL centrifuge tube, standing at room temperature for more than 30 min, and then centrifuged (3000 rpm, 10 min). The supernatant serum was aspirated, and stored at -80° C. for testing. After the blood was collected, the heart was cut with the thoracic aorta. Three parts of the heart were weighed and placed into cryovials, rapidly frozen in liquid nitrogen, and cryopreserved at -80° C. for testing. The aorta and aortic arch were weighed, rapidly frozen in liquid nitrogen, and cryopreserved at -80° C. for testing. The content of NO in the serum of C57BL/6 mice was determined by using the total NO test kit (Beyotime).

[4] = Release of nitric oxide in vitro (Griess reagent, nitrite); settings: 10^−4 mol/L tested substance, phosphate buffer pH 7.4, cysteine 5 mmol/L, 37° C., 1 h; as nitrite
Description: Experiment 1. Experimental Study on the Tested Compounds for Releasing Nitric Oxide in vitro
Experimental Procedure: • (1) Preparation of Griess Reagent: 4 g of aminobenzenesulfonamide, 0.2 g of N-naphthyl ethylene diamine hydrochloride, and 10 mL of 85% phosphoric acid solution were taken to form a solution, which is diluted to 100 mL with distilled water. • (2) Plotting of the standard curve: a serie of standard solution of 0.01, 0.03, 0.05, 0.07, 0.09, 0.2, 0.4 μg/mL of nitrite nitrogen was prepared, 10 mL of each was taken to sufficiently mix with 2.5 mL of Griess reagent, standing at room temperature for 10 min, and its absorbance value at the wavelength of 540 nm was measured. The standard curve was plotted based on the resulting data. • (3) Measuring the amount of the released NO of the tested drug: all of the tested substances were dissolved in dimethylsulfoxide (1 mL) firstly. Then phosphate buffer (pH 7.4) was slowly added dropwise, and shaken. The drug solution was diluted to 50 mL, allowing the buffer solution to contain excess cysteine (5 mmol/L), and the final concentration of the tested substances being 10^−4 mol/L; the solution was incubated at 37° C. 2 mL of the reaction solution was taken to mix with 500 μl of Griess reagent at 1 h respectively, standing at room temperature for 10 min. The absorbance value of the mixture at 540 nm was measured. Isosorbide mononitrate was used as a positive control, and H130 was used as a negative control. The amount of the released NO was represented by the amount of its oxidation product, nitrite (NO2^−).

[5] = blank administration group = 100, 150 mg/kg twice a day, 10 weeks
[6] = serum, high-fat diet 10 weeks, intragastric 150 mg/kg twice a day

| Structure (SMILES) | stability in human plasma [1] | Molar Quantities of N2O/Sample [2] | Heart eNOS (db/db mice) | Serum NO (db/db mice) | release of prototype compound H130 after administration [3] | AUCRatio (Dosage Calibration) ([3]; iv, 1 mg/kg) | AUCRatio (Dosage Calibration) ([3]; po, 5 mg/kg) | Upregulation of Apoa-I Mrna Level (ApoA-I mRNA) | Aorta eNOS (apoE−/− mice; [5]) | ApoA1 (apoE−/− mice; [5]) | Heart eNOS (apoE−/− mice; [5]) | Serum NO (apoE−/− mice; [5]) | Serum eNOS (apoE−/− mice; [5]) | HDL-C (apoE−/− mice; [6]) | LDL-C (apoE−/− mice; [6]) | TC (apoE−/− mice; [6]) | time after administration at which serum NO level rose to its maximum, then decreased (C57BL/6 mice) | Amount of Released No [4] |
| --- | --- | --- | --- | --- | --- | --- | --- | --- | --- | --- | --- | --- | --- | --- | --- | --- | --- | --- |
| COc1cc(OC)c2c(=O)[nH]c(-c3cc(C)c(OCCOC(=O)CCC(=O)ONS(=O)(=O)c4cccc(S(C)(=O)=O)c4)c(C)c3)nc2c1 [Compound H116] | good stability | 15.3% | 159% | 147% | can be rapidly released | 51.6% | 45.3% | Active | 136% | 128% | 148% | 138% | 123% | 74 ± 11 mg/dL | 315 ± 31 mg/dL | 1123 ± 73 mg/dL |  |  |
| O=[N+]([O-])O[C@@H]1CO[C@H]2[C@@H]1OC[C@@H]2O [Isosorbide Mononitrate, Isosorbide mononitrate, reference compound] |  |  | 169% | 136% |  |  |  |  |  |  |  |  |  |  |  |  | 2 h | 3.31 µM |
